Reference: PMC9030223, “MBP-11901 Inhibits Tumor Growth of Hepatocellular Carcinoma through Multitargeted Inhibition of Receptor Tyrosine Kinases” (Cancers, 2022)

How the values were obtained:
Experiment in all cases: CCK-8 cell proliferation/cytotoxicity assay
Assay type in all cases: cell-based
[1] = tested on: Hep3B; conditions: Homo sapiens, 24 h treatment
Method: (§1) Cell proliferation was detected using the Cell Counting Kit-8 (CCK-8, Cat. CK04-13; Dojindo Laboratories, Kumamoto, Japan) according to the manufacturer’s instruction. To evaluate cytotoxicity, cells were seeded in a 96-well plate (FHC, 1 × 10^4 cells/well; Caki-2, PLC/PFR.5, and MCF 10A, 1 × 10^4 cells/well; AML12, HepG2, Hep3B, and Huh-7 1.2 × 10^4 cells/well; HeLa, HEK-293, A549, and PC-3, 1.5 × 10^4 cells/well; HT-29, MCF-7, C6, and NE-4C, 2 × 10^4 cells/well). After attachment and stabilization of cells for 24 h, the medium was switched with fresh containing various concentrations (0, 1, 5, 10, 25, 50, and 100 μM) of MBP-11901, and cells were incubated for 22 h. Next, CCK-8 solution was added to each well, and cells were incubated for another 2 h. Absorbance was then measured at 450 nm using a microplate reader (SpectraMax i3, Molecular Devices, San Jose, CA, USA). The IC50 and log IC50 values were calculated using GraphPad Prism (version 5.02; GraphPad PRISM software Inc. San Diego, CA, USA). All experiments were independently performed 3 times. The graph of log IC50 values represents average values.

[2] = tested on: Huh-7; conditions: Homo sapiens; Huh-7, 24 h treatment
Method: as §1

[3] = tested on: HepG2; conditions: Homo sapiens; HepG2, 24 h treatment
Method: as §1

[4] = tested on: PLC/PRF5; conditions: Homo sapiens, PLC-PRF-5; PLC/PRF5, 24 h treatment
Method: as §1

[5] = tested on: AML12 normal liver cells; conditions: Mus musculus, AML12, 24 h, 24 h treatment
Method: as §1

CNC(=O)c1cc(Oc2ccc(NC(=O)Nc3ccc(Cl)c(C(F)(F)F)c3)cc2)ccn1 [sorafenib, reference compound]
IC50 [1]: 3.64 ± 0.99 µM | IC50 [2]: 6.47 ± 0.88 µM | IC50 [3]: 3.85 ± 0.14 µM | IC50 [4]: 6.81 ± 0.76 µM | IC50 [5]: 13.4 ± 2.77 µM
